Assay: Pharmacokinetics in mice, single gavage
Assay type: in vivo, CD-1 mouse (male)
Details: CD-1 mouse, 300 mpk, plasma
Description: Experimental purpose: To test the pharmacokinetics of the compound in mice
CD-1 mouse (male), vehicle (0.5% (w/v) methylcellulose 0.5% (v/v) Tween 80 aqueous solution), trifluoroacetate of compound 0027.
The vehicle was an aqueous solution of 0.5% (w/v) methylcellulose and 0.5% (v/v) Tween 80, and it was prepared according to the following procedure:
Formulation of preparations for intragastric administration: […]
a. An appropriate amount of the test product was weighed and put into a glass bottle;
b. 70% volume of vehicle (0.5% (w/v) methyl cellulose 0.5% (v/v) Tween 80 aqueous solution) was added;
c. The preparation was stirred until it was visually homogeneous, and subjected to ultrasound in water bath as needed;
e. Make up the remaining volume of 0.5% methylcellulose+0.5% Tween 80, and the mixture was stirred until being visually homogeneous.
Animals in groups 1 and 2 were administrated 5 mg/mL and 30 mg/mL compounds by single gavage, with a dose volume of 10 mL/kg.
The body weight of the animals was weighed before administration, and the administration volume was calculated based on the body weight.
Whole blood samples (30 μL) were collected at the prescribed time (0.25, 0.5, 1, 2, 4, 6, 8, 24 h) through saphenous vein blood collection, and the actual blood collection time was recorded in the test record. […]

Tlast: 24.0 h
SMILES: COc1cc(OC)c(Cl)c(-c2nc(-c3nc(-c4cn(C)nc4C)cnc3N)cn(C)c2=O)c1

Source: US11597722B2, “Crystal form D of pyrazine-2(1H)-ketone compound and preparation method therefor” (ZHANGZHOU PIEN TZE HUANG PHARMACEUTICAL CO., LTD., priority 2019, dated 2023)
